Values quoted from earlier work in PMC6340882, “Targeting protein kinase CK2 and CDK4/6 pathways with a multi-kinase inhibitor ON108110 suppresses pro-survival signaling and growth in mantle cell lymphoma and T-acute lymphoblastic leukemia” (Oncotarget, 2018).

Test system: mantle cell lymphoma
Set-up: method as in PMID 22383795
Conditions: monotherapy for MCL, patients; cited from earlier work

Which overall response rate does the source give for `CC(=O)c1c(C)c2cnc(Nc3ccc(N4CCNCC4)cn3)nc2n(C2CCCC2)c1=O` [Palbociclib] here?
Its overall response rate is 18%.
